Laboratory results taken from the supplement of paper PMC10307832.

Legend:
Assay in all cases: relative viability (nuclei count vs DMSO), 5 days (fraction); higher = more cells survive
Cediranib + Bortezomib = compound: COc1cc2c(Oc3ccc4[nH]c(C)cc4c3F)ncnc2cc1OCCCN1CCCC1 [Cediranib] + CC(C)C[C@H](NC(=O)[C@H](Cc1ccccc1)NC(=O)c1cnccn1)B(O)O [Bortezomib] (partner 0.002 µM)
Outline: (§1)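 For relative viability, nuclei counts in treated wells were divided by those in vehicle wells. Lung cancer cell lines had been pin-tool dosed in 1536-well plates the day after seeding and cultured for 5 days, then fixed and stained in one step (final 0.05% Triton X-100, 1% formaldehyde, 1 ug/ml Hoechst) and imaged at 4×. Doses were one drug alone or a fixed anchor-drug dose plus five library-drug doses (not always all listed) in √10 steps, and values are duplicate-plate medians.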

Decitabine + Lapatinib = compound: Nc1ncn([C@H]2C[C@H](O)[C@@H](CO)O2)c(=O)n1 [Decitabine] + CS(=O)(=O)CCNCc1ccc(-c2ccc3ncnc(Nc4ccc(OCc5cccc(F)c5)c(Cl)c4)c3c2)o1 [Lapatinib] (partner 2 µM)
Outline: as §1

Decitabine + Pemetrexed = compound: Nc1ncn([C@H]2C[C@H](O)[C@@H](CO)O2)c(=O)n1 [Decitabine] + Nc1nc2[nH]cc(CCc3ccc(C(=O)N[C@@H](CCC(=O)O)C(=O)O)cc3)c2c(=O)[nH]1 [Pemetrexed] (partner 0.2 µM)
Outline: as §1

[1] = compound: O=C(C[C@H]1NCCC[C@@H]1O)Cn1cnc2cc(Br)c(Cl)cc2c1=O (racemic) [Halofuginone] + CC1(C)CCC(c2ccc(Cl)cc2)=C(CN2CCN(c3ccc(C(=O)NS(=O)(=O)c4ccc(N[C@H](CCN5CCOCC5)CSc5ccccc5)c(S(=O)(=O)C(F)(F)F)c4)cc3)CC2)C1 [Navitoclax] (partner 0.5 µM)
Outline: as §1

Cell Line	relative viability (Cediranib + Bortezomib; first compound 0.04 µM)	relative viability (Cediranib + Bortezomib; first compound 0.4 µM)	relative viability (Cediranib + Bortezomib; first compound 1.265 µM)	relative viability (Cediranib + Bortezomib; first compound 4 µM)	relative viability (Decitabine + Lapatinib; first compound 0.04 µM)	relative viability (Decitabine + Lapatinib; first compound 0.1265 µM)	relative viability (Decitabine + Lapatinib; first compound 0.4 µM)	relative viability (Decitabine + Lapatinib; first compound 1.265 µM)	relative viability (Decitabine + Lapatinib; first compound 4 µM)	relative viability (Decitabine + Pemetrexed; first compound 0.04 µM)	relative viability (Decitabine + Pemetrexed; first compound 0.1265 µM)	relative viability (Decitabine + Pemetrexed; first compound 0.4 µM)	relative viability (Decitabine + Pemetrexed; first compound 1.265 µM)	relative viability (Decitabine + Pemetrexed; first compound 4 µM)	relative viability ([1]; first compound 0.001 µM)	relative viability ([1]; first compound 0.003162 µM)	relative viability ([1]; first compound 0.01 µM)	relative viability ([1]; first compound 0.03162 µM)	relative viability ([1]; first compound 0.1 µM)	relative viability (Cediranib + Bortezomib; first compound 0.1265 µM)
HOP-62	0.322	0.672	0.68	0.842	0.962	0.604	0.348	0.1	0.14	0.283	0.31	0.205	0.186	0.183	1.14	0.785	0.933	1.04	0.873	
LC-2-ad	1.09	0.973	1.03	0.959	0.676	0.775	0.317	0.245	0.37	0.288	0.255	0.27	0.239	0.266	0.555	0.469	0.43	0.459	0.101	1.04
LCLC-97TM1	0.351	0.643	0.769	0.578	0.576	0.335	0.173	0.169	0.126	0.173	0.134	0.0965	0.125	0.13	0.501	0.476	0.363	0.327	0.212	
LOU-NH91	0.409	0.517	0.513	0.488	0.764	0.712	0.649	0.689	0.661	0.378	0.358	0.422	0.336	0.397	0.746	0.705	0.719	0.719	0.536	0.475
LU99A	1.27	1.12	0.942	1.17	1.01	1.08	1.19	0.866	0.683	0.149	0.157	0.182	0.202	0.167	0.794	0.73	0.763	0.706	0.665	
LXF-289	1.04	0.969	0.97	0.958	0.809	0.733	0.484	0.402	0.354	0.69	0.541	0.423	0.315	0.297	0.94	0.965	0.859	0.973	0.865	0.87
NCI-H23	1.07	0.938	0.907	1.32	0.777	0.795	0.237	0.235	0.22	0.572	0.546	0.322	0.294	0.272	0.893	0.966	0.795	0.798	0.377	
NCI-H322M	1.29	1.32	1.24	1.28	0.682	0.629	0.609	0.434	0.421	0.549	0.602	0.534	0.709	0.53	1.2	1.26	1.26	1.24	1.19	1.56
